{"source": "patent EP0642343B1", "about": "“Acridine carboxamides for the treatment of cancer” (XENOVA LIMITED, priority 1992, dated 1993)", "key": {"human cell lines": {"test_system": "human cell lines", "experiment": "Cytotoxicity under continuous drug exposure, mean over human cell lines", "assay_type": "cell-based", "settings": "continuous drug exposure over approx. 5 cell doubling times, read-out: mean IC50 value for human cell lines", "experimental": "The latter value compared with 2 µM for the 4-pyridyl-quinoline analogue, 0.76 µM for amsacrine, 0.1 µM for the amsacrine analogue 4'-(9-[4-[N-methylcarboxamido]-5-methyl]-acridinylamino)-methanesulphon-m-anisidide (\"CI-921\") and 81 µM for etoposide."}, "[1]": {"experiment": "Pharmacokinetic and tissue distribution studies (tritium label, HPLC)", "assay_type": "in vivo", "settings": "for tissue concentration: 1 h after intraperitoneal 400 µmol/kg, HPLC; for AUC: ip, 400 umol/kg, intraperitoneal 400 µmol/kg", "from_the_text": "We believe that administration of DACA at the new divided dose-high constituent dose frequency regime mentioned above will be helpful in combating brain tumours."}, "CEM-CCRF": {"test_system": "CEM-CCRF", "experiment": "Growth inhibition of leukaemia line, continuous exposure, MTT staining", "assay_type": "cell-based", "settings": "Homo sapiens", "experimental": "(§1) Tumour cell lines were cultured in 96-well plates. […] Primary cultures were incubated at 37°C in sealed perspex boxes containing a humidified atmosphere of 5% CO2 and 5% O2 in nitrogen for 7 days. 5-Methyl-[^3H]-thymidine (20 Ci.mmol^-1; 0.04 µCi per well), thymidine and 5-fluorodeoxyuridine (each at final concentrations of 0.5 µM) were added in medium to cultures (20 µl per well) 24 h before terminating the cultures.\n(§2) 1989, 81:1088-1092, where growth, as indicated by staining or thymidine incorporation, corresponded to 50% of that of the control cultures.\n(§3) The effect of DACA on the growth of cultured cells was assessed by continuous drug exposure. […] These values were similar to those of other human leukaemia cell lines, which ranged from 290 to 760 nM (CEM-CCRF, 410 nM; MOLT-4, 290 nM; Daudi, 400 nM; Raji, 370 nM, U937, 590 nM; HL-60, 620 nM; K-562, 760 nM). Four multidrug-resistant cell lines, developed from JL and JB1 by in vitro exposure to increasing concentrations of doxorubicin (LD and B1D) or amsacrine (LA and B1A) (Finlay G.J., et al., J. Natl. Cancer Inst. 1990, 82, 662-667, Snow K., et al., Br. J. Cancer 1991, 63, 17-28) were tested."}, "HL-60": {"test_system": "HL-60", "experiment": "Growth inhibition of leukaemia line, continuous exposure, MTT staining", "assay_type": "cell-based", "settings": "Homo sapiens", "experimental": "as §1, §2, §3"}, "MOLT-4": {"test_system": "MOLT-4", "experiment": "Growth inhibition of leukaemia line, continuous exposure, MTT staining", "assay_type": "cell-based", "settings": "Homo sapiens", "experimental": "as §1, §2, §3"}, "Raji": {"test_system": "Raji", "experiment": "Growth inhibition of leukaemia line, continuous exposure, MTT staining", "assay_type": "cell-based", "settings": "Homo sapiens", "experimental": "as §1, §2, §3"}, "U937": {"test_system": "U937", "experiment": "Growth inhibition of leukaemia line, continuous exposure, MTT staining", "assay_type": "cell-based", "settings": "Homo sapiens, U-937", "experimental": "as §1, §2, §3"}, "[2]": {"test_system": "human Jurkat T cell leukaemia line, tetraploid (B1)", "experiment": "Growth inhibition of leukaemia line, continuous exposure, MTT staining", "assay_type": "cell-based", "settings": "continuous drug exposure", "experimental": "as §1, §2, §3"}, "[3]": {"test_system": "other human leukaemia cell lines", "experiment": "Growth inhibition of leukaemia lines, continuous exposure, MTT staining", "assay_type": "cell-based", "settings": "range over other human leukaemia cell lines", "experimental": "as §1, §2, §3"}, "B1A": {"test_system": "B1A", "experiment": "Resistance factor, drug-resistant Jurkat leukaemia subline", "assay_type": "cell-based, human", "settings": "B1A (from B1 by exposure to amsacrine); ratio of IC50 resistant line / parent line", "experimental": "(§4) Tumour cell lines were cultured in 96-well plates. Growth of NCI cell lines was assessed using sulpho-rhodamine B staining (Skehan P., et al., J. Natl. Cancer Inst. 1990, 82, 1107-1112), that of the leukaemia lines with (4,5-dimethylthiazole-2-yl)-2,5-diphenyltetrazolium (MTT) staining (Mosmann T., J. Immun. Methods 1983, 65, 55-63) and that of the primary human tumour material by ^3H-thymidine incorporation (Marshall E.S., et al., J. Natl. Cancer Inst. 1992, 84, 341-344). Primary tumour material was cultured in 96-well plates in which the wells were coated with agarose to inhibit selectively the growth of normal cells. (Marshall E.S., et al., J. Natl. Cancer Inst. 1992, 84, 341-344). Primary cultures were incubated at 37°C in sealed perspex boxes containing a humidified atmosphere of 5% CO2 and 5% O2 in nitrogen for 7 days. 5-Methyl-[^3H]-thymidine (20 Ci.mmol^-1; 0.04 µCi per well), thymidine and 5-fluorodeoxyuridine (each at final concentrations of 0.5 µM) were added in medium to cultures (20 µl per well) 24 h before terminating the cultures. Cells were aspirated on to glass fibre filters using a multiple automated sample harvester (LKB Wallac OY Beta Harvester). The filter discs were washed for 15 seconds with water, dried, and the amount of tritium retained quantified by liquid scintillation.\n(§5) IC50 values were defined as in Paull K.D., et al., J. Natl. Cancer Inst. 1989, 81:1088-1092, where growth, as indicated by staining or thymidine incorporation, corresponded to 50% of that of the control cultures. […] Variances of DELTA values were expressed as standard deviations in log10 units. Comparison of DELTA values was made using Pearson correlation coefficients. Resistance factors were defined as the ratios of IC50 values between the resistant line and the parent line. Statistical evaluation was performed either with NCI programmes, with RS/1 software (BBN Research Systems, Cambridge, MA, USA), or with Sigmaplot (Jandel Scientific, San Rafael, CA, USA).\n(§6) The effect of DACA on the growth of cultured cells was assessed by continuous drug exposure. […] Four multidrug-resistant cell lines, developed from JL and JB1 by in vitro exposure to increasing concentrations of doxorubicin (LD and B1D) or amsacrine (LA and B1A) (Finlay G.J., et al., J. Natl. Cancer Inst. 1990, 82, 662-667, Snow K., et al., Br. J. Cancer 1991, 63, 17-28) were tested.\n(§7) DACA was compared with six other drugs including four topo II poisons, doxorubicin, mitozantrone, etopo-side and amsacrine. […]"}, "B1D": {"test_system": "B1D", "experiment": "Resistance factor, drug-resistant Jurkat leukaemia subline", "assay_type": "cell-based, human", "settings": "B1D (from B1 by exposure to doxorubicin); ratio of IC50 resistant line / parent line", "experimental": "as §4, §5, §6, §7"}, "LA": {"test_system": "LA", "experiment": "Resistance factor, drug-resistant Jurkat leukaemia subline", "assay_type": "cell-based, human", "settings": "LA (from L by exposure to amsacrine); ratio of IC50 resistant line / parent line", "experimental": "as §4, §5, §6, §7"}, "LD": {"test_system": "LD", "experiment": "Resistance factor, drug-resistant Jurkat leukaemia subline", "assay_type": "cell-based, human", "settings": "LD (from L by exposure to doxorubicin); ratio of IC50 resistant line / parent line", "experimental": "as §4, §5, §6, §7"}, "[4]": {"test_system": "P388 murine leukaemia (P/ACTD)", "settings": "in vitro tests; reported by Schneider et al., Eur. J. Cancer Clin. Oncol. 1988; cited from earlier work"}}, "note": "pIC50: −log10 of the molar value. Like-named read-outs stand apart in the source and are kept apart here.", "data": [{"molecule": "CN(C)CCNC(=O)c1cccc2cc3ccccc3nc12", "note": "[DACA, N-[2-(dimethylamino)ethyl]acridine-4-carboxamide]", "values": [{"measurement": "pIC50", "setting": "human cell lines", "result": 5.89}, {"measurement": "tissue concentration", "setting": "[1]; brain", "result": 45, "unit": "µmol/kg"}, {"measurement": "tissue concentration", "setting": "[1]; heart", "result": 57, "unit": "µmol/kg"}, {"measurement": "AUC", "setting": "[1]; brain, read-out: AUC", "result": 218, "unit": "µM·h"}, {"measurement": "AUC", "setting": "[1]; heart, read-out: AUC", "result": 147, "unit": "µM·h"}, {"measurement": "AUC", "setting": "[1]; kidney, read-out: AUC", "result": 492, "unit": "µM·h"}, {"measurement": "AUC", "setting": "[1]; liver, read-out: AUC", "result": 547, "unit": "µM·h"}, {"measurement": "AUC", "setting": "[1]; plasma, read-out: plasma AUC", "result": 26.6, "unit": "µM·h"}, {"measurement": "tissue concentration", "setting": "[1]; kidney", "result": 139, "unit": "µmol/kg"}, {"measurement": "tissue concentration", "setting": "[1]; liver", "result": 185, "unit": "µmol/kg"}, {"measurement": "elimination t1/2", "setting": "[1]; tritium-labelled DACA, tissues including brain", "result": "37 to 176", "unit": "h"}, {"measurement": "pIC50", "setting": "CEM-CCRF", "result": 6.39}, {"measurement": "pIC50", "setting": "HL-60", "result": 6.21}, {"measurement": "pIC50", "setting": "MOLT-4", "result": 6.54}, {"measurement": "pIC50", "setting": "Raji", "result": 6.43}, {"measurement": "pIC50", "setting": "U937", "result": 6.23}, {"measurement": "pIC50", "setting": "[2]", "result": 6.42}, {"measurement": "pIC50", "setting": "[3]", "result": "6.12 to 6.54"}, {"measurement": "Resistance factors", "setting": "B1A", "result": 3.9}, {"measurement": "Resistance factors", "setting": "B1D", "result": 1.9}, {"measurement": "Resistance factors", "setting": "LA", "result": 2.0}, {"measurement": "Resistance factors", "setting": "LD", "result": 2.5}, {"measurement": "cross-resistance of P/ACTD cells", "setting": "[4]", "result": "no cross-resistance"}]}]}
